Assay results: patent US10100005B1 (Eclipse Therapeutics, LLC, priority 2017, dated 2018)

Key:
Format in all cases: physicochemical
[1] = Solubility testing in sodium phosphate buffer; details: thermodynamic from solid; aqueous buffer, 0.02 molar dibasic sodium phosphate; sonicated, undissolved solid weighed
Method: Compounds of Formulas I and II, prepared as described in the examples above, were tested to determine their solubility in a sodium phosphate buffer.
An aqueous buffer solution comprising 0.02 molar dibasic sodium phosphate was prepared. A weighted amount of solid was sonicated in the buffer, and then centrifuged to collect the undissolved material. The undissolved solid was dried in vacuuo and weighed. The mass of the undissolved portion was then used to calculate the mass that was successfully dissolved in the known volume of buffer.

[2] = In vitro testing: mesalamine (5-ASA) evolution from 5-glyoxyliminosalicylic acid in buffered saline, by HPLC
Method: The vial was held at ambient temperature for 22.75 hours and sampled. […] No other peaks were present.
Without being bound to a particular theory, it is believed that for 5-glyoxyliminosalicylic acid, the presence of chloride greatly increases the rate of mesalamine evolution.

[3] = Solution stability in aqueous sodium phosphate buffer (visual, photographs); details: for appearance of solution after storage: 11 mg in 5 ml 0.02 molar dibasic sodium phosphate buffer, ambient temperature, 3 days
Method: An aqueous buffer solution comprising 0.02 molar dibasic sodium phosphate was prepared. An 11 mg sample of 5-glyoxyliminosalicylic acid (Formula Ia-i) was added to a vial containing 5 ml of the buffer solution. […] Both vials were stored at ambient temperature.

[4] = In vitro testing: decomposition to 5-ASA in phosphate buffer (pH 6.5), by infusion MS and LCMS; details: 10 mg in 10 ml phosphate buffer (pH 6.5) overnight
Method: 10 mg of 5-ethylglyoxyliminosalicylic acid (prepared as described in Example 4 above) was stored in 10 ml phosphate buffer (pH 6.5) overnight.

## COc1cc(/C=N\c2ccc(O)c(C(=O)O)c2)ccc1O [Formula IIa-i, 5-vanilliniminosalicylic acid]
[1]
  solubility: 3.45 mg/mL

## COc1cc(/C=N\c2ccc(C(=O)O)c(O)c2)ccc1O [Formula IIb-i, 4-vanilliniminosalicylic acid]
[1]
  solubility: 7.35 mg/mL

## O=C(O)/C=N\c1ccc(O)c(C(=O)O)c1 [Formula Ia-i, 5-glyoxyliminosalicylic acid]
[1]
  solubility: 11 mg/mL
[2]; 12 mg compound + 12 mg 5-aminosalicylic acid in 6 ml buffered saline, ambient temperature, 22.75 hours, no other peaks
  percentage of 5-aminosalicylic acid by HPLC: 87%
[2]; same experiment in the absence of saline
  mesalamine evolution: very little mesalamine evolution
[3]
  appearance of solution after storage: still clear and lightly colored
[3]; dissolved in aqueous sodium phosphate buffer, 3 days ambient
  storage stability relative to mesalazine: significantly greater degree of storage stability than mesalazine

## CCOC(=O)/C=N\c1ccc(O)c(C(=O)OCC)c1 [Formula Ia-ii, ethyl 5-ethylglyoxyliminosalicylate]
[1]
  solubility: 0.13 mg/mL

## CCOC(=O)/C=N\c1ccc(O)c(C(=O)O)c1 [Formula Ia-iii, 5-ethylglyoxyliminosalicylic acid]
[1]
  solubility: 12 mg/mL
[4]
  decomposed to 5-ASA (LCMS, single ion monitoring): ~90%
  decomposition to release 5-ASA (infusion MS): partially decomposed

## O=C(O)/C=N/c1ccc(C(=O)O)c(O)c1 [Formula Ib-i, 4-glyoxyliminosalicylic acid]
[1]
  solubility: 17.3 mg/mL

## CCOC(=O)C=Nc1ccc(C(=O)O)c(O)c1 [Formula Ib-ii, 4-ethylgloxyliminosalicylic acid]
[1]
  solubility: 10.2 mg/mL

## Nc1ccc(O)c(C(=O)O)c1 [Mesalazine, 5-aminosalicylic acid, reference compound]
[3]
  appearance of solution after storage: turned a dark brown color, and a significant amount of brown solid material precipitated
